Measurements published in patent US7728128B2, “Dibenzo[c,h][1,5]naphthyridines and their use as DNA probes” (Institut National de la Sante et de la Recherche Medicate …, priority 2006, dated 2010).

Assays:
human fibroblasts = experiment: in vivo nuclear fluorescence of human fibroblasts incubated with the molecules, scored in the microscope; format: cell-based; design: key: Weak: Staining was defined as “weak”, “moderate” or “strong” based on the nuclear signal/background ratio.; Moderate: Staining was defined as “weak”, “moderate” or “strong” based on the nuclear signal/background ratio.; Strong: Staining was defined as “weak”, “moderate” or “strong” based on the nuclear signal/background ratio; conditions: 10 μM, 10-60 min (up to 24 hours); Alexa488/FITC filter
Experimental: In this study, three different types of cells were used: Xenopus epithelial cell line XL177 (Miller, L. et al., 1977, In Vitro, 13, 557-563) stably transformed with a YFP-α-tubulin expressing construct (pEYFP-Tub, Clontech), mouse fibroblasts, and primary human skin fibroblasts. XL177 cells were grown at 20° C. in 60% Leibowitz-15 medium, supplemented with antibiotics, 10% fetal calf serum (FCS) and 10 mM HEPES, pH 7.2 with addition of 0.7 mg/ml G418. Cells were plated into glass-bottom 96-well plates (Greiner, Germany) and left to spread for 24 hours before being incubated in the presence of the test compounds from the Curie-CNRS small molecule library (at 25 or 50 μM final concentration) for another 20-24 hours. Mouse and human fibroblasts were grown in DMEM with antibiotics and 10% FCS at 37° C. in the presence of 5% CO2. The cells were observed using a Zeiss Axiovert 200M microscope with a 40× oil immersion objective and a standard Alexa488/FITC filter (Omega, XF100-2; Ex475AF40/Em535AF45/Dichroic505). Subsequent experiments were carried out using smaller concentrations of compound I and incubation times as described in the text and figures legends. For the in vivo tests of compound I-like compounds, the molecules were added to cell culture medium at 10 μM final concentration and incubated with cells 10-60 min (up to 24 hours) prior to scoring.
(§1) To get a further insight into how the structural properties of compound I contribute to its binding to DNA, the inventors analysed fourteen structural analogues present in the compound library. Although several of these compounds are fluorescent in vivo, this property went undetected in the initial screen most likely due to the latency period before the appearance of the signal (see below). To evaluate the activity of compound I-like molecules three tests were used: (1) in vivo, the inventors incubated human fibroblasts in the presence of the molecules and scored nuclear fluorescence in the microscope; (2 and 3) in vitro, the inventors looked at the absorption and fluorescence of free molecules before and after addition of plasmid DNA. […] With the exception of compound I and analogues 8 and 12, accurate in vitro measurement of the fluorescence intensities was impossible because the emission peaks for the free molecules were too close to that for the DNA-bound dye. This affected the height of the dye/DNA peaks.

CT DNA = experiment: quantum yield, free dye and in admixture with CT DNA; format: physicochemical, calf
Experimental: (§2) Spectrometry and fluorimetry were performed using a SpectraMax384 (Molecular Devices) and a Luminescence Spectrometer LS50B (Perkin Elmer). Fluorescence emission of compound I in complex with DNA and RNA was measured in 50 mM Na phosphate buffer, pH 7.2 at room temperature. Before use, total E. coli RNA was heated to 100° C. for 1 min and immediately transferred on ice for 5 min before mixing with compound I solution. All measurements were carried out at room temperature (20-23° C.) in solutions protected from light and incubated for ˜10-15 min after dilution. The units of b/dye and bp/dye are defined as moles of RNA bases or DNA base pairs per mole of dye. Quantum yield was measured using quinine sulphate as standard as described in (Iupac Commission on Photochemistry, EPA Newsletter of November 1986, 21-29) using FLUOROMAX-3 Spex Spectrofluorometer (HORIBA) and UVIKON XL Spectrophotometer (SECOMAM).
Although compound I also stains mitotic chromosomes (FIG. 1D), theoretically it was possible that it binds specifically to DNA-associated proteins (for example histones) rather than to nucleic acids. To resolve this issue, the absorption and emission spectra of free compound I before and after addition of dsDNA were recorded. […] Molar extinction coefficient (EC) of free compound I at 391 nm was measured at 10,800 cm^−1 M^−1. […]

plasmid DNA = experiment: fluorescence of free molecules before and after addition of plasmid DNA; format: physicochemical; design: Fluorescence maxima free dye / Fluorescence maxima DNA bound dye: unit not given beside the values
Experimental: Plasmid dsDNA was purified using a Qiagen Maxiprep kit and used in the supercoiled form for absorption and fluorescence studies. E. coli total RNA was bought from Ambion, dA/dT and dG/dC homopolymers were purchased from Amersham Biosciences. Calf thymus (CT) high-molecular weight DNA and Hoechst 33258 were obtained from Sigma-Aldrich. Ethidium bromide was purchased from Amresco.
as §2
Although compound I also stains mitotic chromosomes (FIG. 1D), theoretically it was possible that it binds specifically to DNA-associated proteins (for example histones) rather than to nucleic acids. To resolve this issue, the absorption and emission spectra of free compound I before and after addition of dsDNA were recorded. […] Molar extinction coefficient (EC) of free compound I at 391 nm was measured at 10,800 cm^−1 M^−1. In the presence of ds plasmid DNA the absorption peaks of compound I at 373 and 391 nm decreased, and a new peak appears with a maximum at 435 nm (FIG. 1E). An overlay of the absorption spectra in complex with dsDNA at different bp per dye ratios gives a single isosbestic point at 398 nm. Free compound I fluoresces around 438 nm (the exact position of the peak depends on the excitation wavelength). […] At the same time, a new peak evolves with a maximum around 484 nm (FIG. 1F). The exact maximum of fluorescence of compound I/DNA complexes varies insignificantly as a function of the dye/bp ratio and/or base pairs composition of the nucleic acids. […] The quantum yield for compound I (excited at 435 nm) at 5 μM in 50 mM Na-phosphate, pH 7.2, was determined to be 2.7% for free dye and 13.8% in admixture with 50 μM CT DNA.
as §1

[1] = test system: primary human fibroblasts; experiment: nuclear fluorescence compared with cyclin A immunofluorescence (DNA quantification); format: cell-based; conditions: methanol-fixed cells
From the text: Such a double staining carried the risk of a possible competition for binding sites and/or unpredictable effects on fluorescence. Therefore, the inventors decided to compare the integrated total fluorescence of compound I-stained nuclei in fixed cells with a known cell cycle protein marker. The inventors fixed primary human fibroblasts with methanol, performed indirect immunofluorescence with anti-cyclin A antibodies, followed by Alexa 568-labelled secondary antibodies and counterstained nuclei with compound I. Cyclin A accumulates in cells beginning at the S phase and throughout the G2 cell cycle phase, and unlike cyclin B, is practically all nuclear (rev. in Pines, J. et al., 1992, Ciba Found Symp, 170, 187-196; discussion 196-204.). […] Moreover, the inventors observed a direct correlation of the compound I fluorescence with that of cyclin A in cyclin A-positive cells (FIG. 6B). […] This correlates well with 2N and 4N DNA content expected to be found in G1 and G2 cells, respectively.

quantum yield (CT DNA; free dye, 5 μM, 50 mM Na-phosphate pH 7.2, excited at 435 nm): 2.7%
quantum yield (CT DNA; in admixture with 50 μM CT DNA, 5 μM dye, excited at 435 nm): 13.8%
emission maximum of new peak upon DNA binding (plasmid DNA; DNA-bound): around 484 nm
hypsochromic shift of the 438 nm emission peak upon DNA binding (plasmid DNA; DNA-bound): 426 nm
Fluorescence maxima DNA bound dye (plasmid DNA; after addition of plasmid DNA): 484
emission peak of free dye (plasmid DNA; free compound): around 438 nm
Fluorescence maxima free dye (plasmid DNA; free molecule, before addition of plasmid DNA): 438
emission maximum (plasmid DNA; plasmid DNA at bp/dye ratio 40): 472 nm
Structure (SMILES): COc1ccc2c(c1)c(C)nc1c3ccc(OC)cc3c(NCCCN(C)C)nc21 [Compound I, N′-(2,8-dimethoxy-12-methyl-dibenzo[c,h][1,5]naphthyridin-6-yl)-N,N-dimethyl-propane-1,3-diamine]
Images of the in vivo nuclear staining (human fibroblasts): Strong
dye fluorescence of strongly cyclin A-positive nuclei relative to cyclin A-negative nuclei [1]: approximately twice as much
